Source: patent publication US20030175678A1, “Methods for identifying genes regulating desired cell phenotypes” (priority 2001, published 2003)

Experiments:
Format in all cases: cell-based
[1] = tested on: C. fascicularis suspension culture; test: Differential induction of EGCG in Crassula fascicularis suspension culture (HPLC); details: B49 medium, treated on day 7 following subculture
Description: Differential induction of catechins in the C. fascicularis suspension culture was performed in 500 mL conical flasks containing 190 mL of either growth medium B105 (modified Gamborg's B5 medium containing 2,4-D (1 mg/L), kinetin (0.1 mg/L), coconut water (100 mL/L), glutamine (10 mM), and 3% sucrose) or a secondary metabolite production medium B49 (Gamborg's B5, 5% sucrose, no hormones), inoculated with 70 mL of 14 day old suspension culture. Cultures were grown for 14 days before harvest and processing. Further cultures grown on production medium B49 were treated using one of each of the following protocols:
(4) A 40 mL aliquot of a day 0 suspension growing on B105 medium was transferred to a 100 mL flask. On day 3, a sterile solution of 5-azacytidine (5-AC) in water was added for a final concentration of 3×10^−5 M, and the resultant mixture was incubated for 11 days. At this point the 40 mL 5-AC-treated culture was subcultured twice before inoculating 190 mL B49 production medium in a 500 mL flask with 70 mL of day 14 suspension. The culture was then treated further according to protocol (2). […]
Lyophilized biomass from 100 mL plant cell culture was extracted three times with 10 mL of boiling aqueous 0.2 M NaH2PO4 solution (total 30 mL). The combined, cooled, extracts were extracted with EtOAc (2×30 mL). The combined EtOAc extracts were then dried under a stream of nitrogen. The samples were dissolved in 50% aqueous acetonitrile at a concentration of 1.0 mg/mL; a 0.1 mL aliquot was transferred into a 0.25 mL glass insert to a 2 mL HPLC vial. The extraction procedure is scalable according to the initial volume of the plant-cell culture used to generate the biomass.
HPLC analyses of compounds in plant cell culture extracts were performed in two systems. System 1 (S1) utilized a Rainin Dynamax SD-200 pumping system, a Varian Dynamax PDA-2 diode array detector, with a Waters XTerra RP 18 (5 μm, 3.0×150 mm) column. The mobile phase was composed from 0.1% acetic acid in H2O (solvent A) and 0.1% acetic acid in acetonitrile (solvent B), at a flow rate of 0.75 mL/min: after maintaining initial conditions (A:B, 95:5) for one minute post-injection, gradient elution was accomplished in a linear fashion over 30 min (to A:B, 40:60). A total of 10 μL of each sample was injected onto the column and eluates were analyzed at a wavelength of 275 nm. System 2 (S2) utilized API-electrospray-LC-MS: a Hewlett Packard series HP1100 with a Waters Xterra RP18 (3.5 μm, 2.1×100 mm) column was used as the inlet for a Micromass Platform-LC, in the positive-ion mode. […] Compounds of interest were detected at 254 nm and as single-charged species via selected-ion monitoring in the mass spectrometer. […]

[2] = tested on: C. barkleyi suspension culture; test: Differential induction of catechin accumulation in Crassula barkleyi suspension culture; details: B49 medium, treated seven days after inoculation, sampled for 17 days
Description: Differential induction of catechin derivatives in the C. barkleyi suspension culture was performed in 250 mL conical flasks containing 100 mL of a secondary metabolite production medium B49 (Gamborg's B5, with 5% sucrose, and no hormones), inoculated with 16 mL of 14 day old suspension culture. The cultures were incubated under low light conditions (approximately 30 lux) at 25° C. for seven days after inoculation. Cultures were then treated using one of each of the following protocols (untreated cultures were also maintained as controls):
(2) Autoclaved aqueous 2,4-D (1 mg/L final concentration) was added;
(4) Filter-sterilized aqueous DL-phenylalanine (200 mg/L) was added;
(6) Filter-sterilized aqueous zeatin (10 μM) was added;
(7) Filter-sterilized aqueous 1-aminocyclopropane-1-carboxylic acid (10 mg/L final concentration) was added;
(8) Filter-sterilized 24-epibrassinolide (1 mg/L final concentration) was added;
(9) Incubation at a temperature of 16° C.; or (10) High light regime (approximately 160 lux).
Ten milliliter culture samples were taken at regular intervals for 17 days following the day of subculture to B49 medium. All culture samples were centrifuged for five minutes at 4000 rpm, and the cell residue was freeze-dried. Extraction, sample preparation, and HPLC analysis were performed as described in Example 1.

[3] = tested on: Ajuga reptans suspension culture; test: Differential induction of diterpenes (Compound 6) in Ajuga reptans suspension culture; details: B49 production medium, treated day 7, harvested after a further seven days, n = 3
Description: Differential induction of diterpenoids in the Ajuga reptans suspension culture was performed by inoculating 500 mL conical flasks containing 190 mL of a secondary metabolite production medium B49 (Gamborg's B5, 5% sucrose, no hormones), with 70 mL of 14 day old suspension culture. The culture was incubated at 25° C. in continuous low light and shaken at 140 rpm. Cultures were grown for seven days (25° C. in continuous low light and shaken at 140 rpm) and then dispensed as 5 mL aliquots to 6-well plates (Bibby Sterilin Ltd, Stone, UK). Cultures were then treated using one of the following protocols:
Triplicate samples were set up for each treatment. Cultures were incubated for a further seven days before harvest for extraction and analysis of diterpenoids.
Cultures were harvested by freezing entire 6-well plates at −20° C. and then freeze-drying cultures in situ. […] After standing for one hour 500 μL of filtered methanol extract was removed and immediately analyzed.
HPLC analysis was carried out using an Xterra RP 18 column (dimensions 3×150 mm with 5 μm packing) using an isocratic solvent system of water (two volumes): acetonitrile (three volumes) to which has been added 0.1% acetic acid. […] The eluate was monitored by UV absorption. The principal diterpene metabolite (Compound 6) has UV absorption maxima at 230, 290 and 340 nm and can be sensitively monitored at any of these wavelengths. […]

Structure (SMILES): CC/C=C\CC1C(=O)CCC1CC(=O)OC (stereo not drawn) [methyl jasmonate]
- EGCG (mg/gdwt) two days after treatment [1]: 67 mg/gdwt
- catechin biosynthesis and EGCG accumulation [2]: induced catechin biosynthesis and EGCG accumulation
- Compound 6 (mg/L culture) Mean [3]: 9.52 mg/L culture
